Assay: gradient 5% acetonitrile 3 min, to 50% in 2 min, to 85% in 15 min, held 3 min, 100 µL/min
Conditions: column: Zorbax Extend-C18 2.1 x 50 mm; eluents: water / acetonitrile, 0.1% formic acid
How it was run: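 The mobile phases were water and acetonitrile, each with 0.1% formic acid, pumped at 100 μL/min through a Zorbax Extend-C18 column (2.1 × 50 mm, 1.8 μm). Pure standards were injected as mixtures of ~100 molecules and detected by a quadrupole time-of-flight mass spectrometer in positive and negative ionization mode. Retention time came from computationally picked adduct peaks, each inspected by hand.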

| SMILES | RP-LC retention time [s] |
| --- | --- |
| COCCNC(=O)Cn1c(C(F)(F)F)nc2cc3c(cc21)OCCO3 | 641 |
| CCOc1ccc(NC(=O)NCC(c2cccnc2)c2cn(CC)c3ccccc23)cc1 (centres undefined) | 751 |
| Cc1cc(-c2csc(S(=O)(=O)NCC3CCN(Cc4ccc(Cl)cc4)CC3)c2)on1 | 733 |
| COc1ccc(-c2[nH]ncc2CN2CCC3(CC2)CC(C)(O)CCO3)cc1 (centres undefined) | 588 |
| CCOC(=O)c1cc(S(=O)(=O)N2CCCC2C(=O)Nc2ccc(F)cc2)cn1C (centres undefined) | 920 |
| Cc1cccc(OCC(=O)N2CC(CN(C)C)C3(CCOCC3)C2)c1 (centres undefined) | 598 |
| O=S(=O)(c1cccc(-c2nnc(-c3ccc(F)cc3)o2)c1)N1CCOCC1 | 892 |
| CCc1ccc(C(=O)c2cnc3ccc(OC)cc3c2N2CCN(C)CC2)cc1 | 614 |
| CCSc1nnc(-c2nn(C)c3c2CN(C(=O)Nc2ccc(OC)cc2)CC3)n1CC | 809 |
| COCc1nc2ccccc2n1CC(=O)Nc1ccccc1 | 780 |
| O=C1Nc2cc(C(=O)N3CCN(Cc4ccccc4)CC3)ccc2N2CCCCC12 (centres undefined) | 612 |
| CCN(CC)c1ccc(NC(=O)C2CCCN(S(=O)(=O)c3cn(C(C)C)cn3)C2)c(C)c1 (centres undefined) | 622 |
| C[C@H](N)C(=O)N[C@@H](C)C(=O)N[C@@H](Cc1ccccc1)C(=O)CCl | 638 |
| CCc1nc2cc(-c3noc(-c4cc(F)ccc4F)n3)ccc2o1 | 1180 |
| CCc1ccc(NS(=O)(=O)c2cc(-c3[nH]ncc3C(=O)N(C)C)oc2C)cc1 | 704 |
| Cc1ccc(CNC(=O)C2CCN(S(=O)(=O)c3cc(-c4noc(C5CC5)n4)cs3)CC2)cc1 | 998 |
| CN(C)C(=O)CN1C(=O)COc2ccc(C(=O)N3CCN(c4ccc(F)cc4)CC3)cc21 | 715 |
| Cc1ccccc1S(=O)(=O)N1[C@H]2CC[C@@H]1c1cnc(-c3ccc(F)cc3)nc1C2 | 1210 |

| SMILES | RP-LC retention time [s] |
| --- | --- |
| CS(=O)(=O)N1CCC(C(=O)Nc2ccccc2Br)Oc2ccccc21 (centres undefined) | 996 |
| Cc1ccc(-c2csc(NC(=O)c3ccc(Br)cc3)n2)c(C)c1 | 1270 |
| O=C(NCCc1ccccc1)N1CCCC(Cn2cnc3cccnc32)C1 (centres undefined) | 635 |
| Cc1ccc(NC(=O)Cn2cccc2-c2nnc(C3CCC3)o2)cc1F | 973 |
| Cc1cccc(-c2nc3c4ccccc4nc(N4CCN(c5ccccn5)CC4)n3n2)c1 | 921 |
| CCOC(=O)N1CCN(c2ncc(S(=O)(=O)c3ccc(C(C)C)cc3)c(N)n2)CC1 | 1030 |
| COc1ccccc1-c1noc(C2CCCN2C(=O)c2ccccc2C)n1 (centres undefined) | 896 |
| Cc1ccc(-c2cc3n(n2)C(NCCc2cccs2)CNC3=O)cc1 (centres undefined) | 739 |
| CCOC(=O)c1ccccc1NC(=O)C1=Cc2ccccc2OC=C1 | 1410 |
| Cc1cc(C(=O)NCCN2CCCCC2)c2cc(Br)ccc2n1 | 567 |
| Cc1ccc(-c2nc3ccc(Cl)cn3c2Nc2ccc3c(c2)OCCO3)cc1 | 779 |
| CN1C(=O)c2cccn2CC1CNC(=O)Nc1ccc2c(c1)OCCO2 (centres undefined) | 624 |
| Cn1cnc(S(=O)(=O)N2CCC(C(=O)NC3CCCc4ccccc43)CC2)c1 (centres undefined) | 728 |
| CCC(=O)N1CCc2cc(N3CC(C(=O)NC4CC4)CC3=O)ccc21 (centres undefined) | 620 |
| CCc1nc2cccnc2n1CCN1CCN(C(=O)Nc2ccc(Br)cc2)CC1 | 631 |
| CCc1ccc(-n2cc(C(=O)OCc3cc(=O)n4ccccc4n3)c3ccccc3c2=O)cc1 | 991 |
| Cc1ccc(NC(=O)N2C[C@@H](F)C[C@H]2C(=O)N2CCCCC2)cc1Cl | 813 |
| CC(C)NC(=O)c1cccc2c1CCN2C(=O)C1CC1 | 700 |

Now from value to molecule:

| RP-LC retention time [s] | SMILES |
| --- | --- |
| 886 | O=C(Nc1ccc(OCc2nnc(-c3ccccc3)o2)cc1)c1n[nH]c2c1CCCC2 |
| 788 | COc1ccc(CN2CC(=O)N(c3cccc(C)c3)[C@@H]3CS(=O)(=O)C[C@@H]32)cc1 |
| 1100 | O=C(Cn1cccc1-c1nc(-c2ccc3c(c2)OCO3)no1)Nc1ccc(F)c(F)c1 |
| 925 | Cc1cc(C)cc(NC(=O)Cn2c(=O)nc(N3CCC(C)CC3)c3ccccc32)c1 |
| 742 | CN1C/C=C/CCOc2cccc(c2)-c2ccnc(n2)Nc2cccc(c2)C1 |
| 786 | O=C(CN1C(=O)CCc2cc(Br)ccc21)N1CCN(c2ncccn2)CC1 |
| 952 | COc1ccc(-c2noc(C3CCCN3C(=O)Nc3ccc(OC)cc3OC)n2)cc1 (centres undefined) |
| 831 | COc1ccc(-c2nc3cnccn3c2Nc2cc(OC)ccc2OC)cc1 |
| 662 | CC1CN(C2CCCCC2)c2nc3c(c(=O)n(CCN4CCOCC4)c(=O)n3C)n2C1 (centres undefined) |
| 969 | CCc1ccc(CNC(=O)Cn2ccc3ccc(N4CCOCC4)nc32)cc1 |
| 891 | COc1cccc(CNC(=O)N2CCc3nc(-c4ccccc4)sc3C2)c1 |
| 933 | O=C(COc1ccc(Br)cc1)NCc1ccc2c(c1)OCCCO2 |
| 1040 | CCC(C)NC(=O)c1c(C)oc2ccn(Cc3ccc(F)cc3)c(=O)c12 (centres undefined) |
| 615 | CCCc1cc(N2CCN(c3ccccn3)CC2)n2nc3nc(C)cc(C)c3c2n1 |
| 737 | O=C(NCCC1=CCCCC1)C1CCN(c2cnc3nccnc3c2)CC1 |
| 747 | Cc1ccc2c(c1)-c1onc(C(=O)N3CCN(c4ccccn4)CC3)c1CO2 |
| 617 | Cn1c(CCNC(=O)c2ccc(F)c(F)c2)nc2cccnc21 |
| 602 | COc1ccc(-c2cc(N3CCN(C(=O)NC(C)C)CC3)ncn2)cc1OC |
| 599 | O=C(Cc1ccccc1F)N1CCC(Nc2ncnc3c2CCC3)C1 (centres undefined) |
| 613 | Cc1ccc(-n2ncc3c(NCCN4CCOCC4)ncnc32)cc1Cl |
| 682 | COC(=O)c1ccc(NS(=O)(=O)c2cc3n(c2)CCN(C)C3=O)cc1 |
| 750 | O=C1NCCc2c1[nH]c1ccccc21 |
| 669 | O=C(Cn1nc2n(c1=O)CCCC2)NCc1ccccc1Cl |
| 1110 | CC(C)c1nn2c(S(=O)(=O)NC3CCCCC3)c(C(C)C)nc2s1 |
| 599 | CCCC(=O)Nc1ccc(CCc2nc3ccc(C(=O)NC4CC4)cc3[nH]2)cc1 |
| 675 | Cc1ccc(NC(=O)Cn2cnc(C)c(C)c2=O)cc1 |
| 758 | Cc1noc(CNC(=O)c2ccc(OCc3nc(-c4ccco4)cs3)cc2)n1 |

| RP-LC retention time [s] | SMILES |
| --- | --- |
| 663 | CSc1ccc(CNC(=O)c2ccc3nc(CCc4ccc(NC(C)=O)cc4)[nH]c3c2)cc1 |
| 747 | COC(=O)C1=CN(c2ccc(C(=O)OC)cc2)c2ccccc2S1(=O)=O |
| 605 | COc1ccc(C(=O)N2C[C@@H]3C[C@H](NC(=O)c4cccnc4)[C@H]2C3)c(OC)c1 |
| 824 | O=C(C1=NN(Cc2ccccc2)c2ccc(Cl)cc2S1(=O)=O)N1CCOCC1 |
| 705 | CCC(CC)NCCOC(=O)c1ccc([N+](=O)[O-])cc1 |
| 626 | COc1ccccc1OCC(=O)N1CCN(c2cc(C(C)C)n3cnnc3n2)CC1 |
| 993 | COc1cccc(Cc2nc(-c3cn(-c4cccc(F)c4)nn3)no2)c1 |
| 854 | O=C(CN1CCN(Cc2cccc(Cl)c2)C1=O)NCc1ccc(N2CCCC2)cc1 |
| 956 | Cc1ccc(-c2nc(CCN(C)C(=O)NCCc3ccccc3)no2)cc1 |
| 632 | COC[C@H]1NC(=O)CC[C@H]1C(=O)Nc1ccc2c(c1)OCCO2 |
| 829 | O=C(Nc1nc(-c2cc([N+](=O)[O-])cs2)cs1)C1=COCCO1 |
| 610 | COCC(=O)N1CCC2(CC1)NC(=O)c1ccccc1O2 |
| 667 | O=C(COc1ccc(F)cc1)NCC1(O)CCCC1 |
| 686 | O=C(CN1c2ccc(Br)cc2-c2ccccc2S1(=O)=O)NCc1cccnc1 |
| 788 | COc1cccc(N2CCN(c3ccnc(SCC(=O)NCc4ccccc4Cl)n3)CC2)c1 |
| 764 | COc1ccc(-c2csc3c(=O)n(CC(=O)NCc4ccco4)cnc23)cc1 |
| 1040 | COc1ccc(-c2nc(CN3C(=O)C(O)(c4ccccc4)c4ccccc43)c(C)o2)cc1 (centres undefined) |
| 932 | O=C(Nc1c(F)cccc1F)N1CCc2nc(-c3ccc(F)cc3)ncc2C1 |
| 588 | CC(=O)c1ccc(S(=O)(=O)N2CCCC(C)(C(=O)NCc3ccccc3C)C2)cc1 (centres undefined) |
| 748 | Cc1cc2c(cc1S(=O)(=O)N1CCCC1C(=O)N1CCc3ccccc3C1)OCC(=O)N2 (centres undefined) |
| 1160 | CCc1ccc(-c2noc(Cn3c(=O)n(-c4ccc(Cl)cc4)c(=O)c4sccc43)n2)cc1 |
| 682 | O=C(NCCn1c(-c2ccc(F)cc2)nc2cccnc21)Nc1ccc2c(c1)OCCO2 |
| 921 | O=S(=O)(Nc1cc(-c2ccoc2)no1)c1ccc2c(c1)CCC2 |
| 839 | O=C(NCc1ccc(F)c(Cl)c1)C1CCN(c2ccc(SCc3ccccc3)nn2)CC1 |
| 893 | O=C(NCc1ccccc1)C(=O)NCC1OCCc2ccccc21 (centres undefined) |
| 1040 | Fc1cccc(Cn2cc(-c3noc(-c4cccc(F)c4)n3)nn2)c1 |

Reference: the METLIN SMRT retention time set (Domingo-Almenara et al. 2019)
